The target in the test is E3 ubiquitin-protein ligase Mdm2 (Homo sapiens) (UniProt Q00987). Description: 384-well cell-based luminescence, MDM2-luciferase reporter signal enhancement, concentration series, MDM2 ligase inhibitor project (AID 1394). As to conditions: cells, MDM2-luciferase autoubiquitination reporter, 2 h; for maximum enhancement: active compounds read high.

Data on 34 compounds can be found in PubChem BioAssay AID1394 (PCMD, 2008).

Activity calls are given as the source filed them.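 Rule for the calls: active = fitted EC50 above 0 with maximum enhancement above 35%; inactive = the rest.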

Sequence of E3 ubiquitin-protein ligase Mdm2 (Homo sapiens) (Q00987 whole entry, looked up): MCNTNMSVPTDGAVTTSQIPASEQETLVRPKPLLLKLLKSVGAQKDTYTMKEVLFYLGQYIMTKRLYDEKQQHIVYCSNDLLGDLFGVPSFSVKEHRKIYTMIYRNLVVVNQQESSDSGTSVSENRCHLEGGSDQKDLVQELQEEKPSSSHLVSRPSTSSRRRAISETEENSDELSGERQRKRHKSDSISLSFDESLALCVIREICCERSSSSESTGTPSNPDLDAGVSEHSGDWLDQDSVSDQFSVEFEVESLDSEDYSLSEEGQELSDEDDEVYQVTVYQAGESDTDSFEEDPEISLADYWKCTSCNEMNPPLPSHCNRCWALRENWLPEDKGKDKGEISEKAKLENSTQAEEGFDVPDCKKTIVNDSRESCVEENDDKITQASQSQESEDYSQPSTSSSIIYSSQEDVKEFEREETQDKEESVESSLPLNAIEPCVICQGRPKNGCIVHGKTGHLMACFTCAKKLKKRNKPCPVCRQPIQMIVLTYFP

Consider `COc1ccc(OC(C)C(=O)Nc2ccccc2C(F)(F)F)cc1` (centres undefined), for which the maximum enhancement result was “inactive”.
On the same count and under the same terms, under `C=C1CCN(C(C(=O)OC)C(C)C)S(=O)(=O)c2ccccc21` (centres undefined) stands “inactive”; under `O=C(O)CCc1ccc(-c2ccc(Br)cc2)n1CC(=O)O`, “inactive”; under `CCN(C(=O)CSc1nc2ccccc2c(=O)n1-c1cccc(C)c1)C1CCS(=O)(=O)C1` (centres undefined), “inactive”.
Still for that read-out and setting: under `O=C(CN1CCCCC1)NC(=O)NCc1ccccc1` stands “inactive”; under `CCn1cc(C(=O)NCc2ccccc2OC)c(=O)c2cc(S(=O)(=O)N(C)C)ccc21`, “inactive”.
As for `COc1ccc(N2C(=S)N=C(Nc3ccccc3)C23CCCCC3)cc1`, the maximum enhancement result is “inactive”.
Still for that read-out and setting: under `O=C(c1cn(-c2ccccc2)nc1-c1cccs1)N1CCOCC1` stands “inactive”.
Turning to `CCCCS(=O)(=O)/C=C\C=C/S(=O)(=O)CCCC`, the maximum enhancement entry was “inactive”.
Regarding `CC1=NN(c2ccc(C)cc2)C(=O)/C1=C\C=C\c1ccccc1`, the maximum enhancement entry was “inactive”.
On to `COc1ccc(NC(=O)/C(C#N)=C\c2ccc(OCc3ccc(C(=O)O)cc3)c(OC)c2)cc1`, for which the maximum enhancement entry is “inactive”.
The same measure, in the same setting: then `CC(=O)Cc1nsc(Nc2ccc(C)cc2)n1`, with “inactive”; and `O=C(CNCc1ccc(Cl)cc1)Nc1cccc(C(=O)O)c1`, with “inactive”; and `Fc1cccc(Cl)c1/C=N/n1c(-c2cccnc2)n[nH]c1=S`, with “inactive”.
In the case of `Cn1c(=O)cc(OCC(=O)NCc2cccs2)c2ccccc21`, the maximum enhancement result is “inactive”.
As to `Cc1cc(=O)n2[nH]c(N3C(=O)CCC3=O)nc2n1`, the maximum enhancement entry was “inactive”.
For the compound `COc1cc(/C=C2/C(=N)N3OC(C)=CC3=NC2=O)ccc1OC(=O)c1ccco1`, the maximum enhancement result was “inactive”.
Still for that read-out and setting: then `CCCCC(=O)/C=C/n1c(=S)oc2ccccc21`, with “inactive”.
Still for that read-out and setting: then `COc1ccccc1-c1nnc(Nc2nc3c(OC)cccc3s2)o1`, with “inactive”.
Same read-out and setting: under `CCc1cc2c(=O)c(-c3nc4ccccc4n3C)c(CCCC(=O)O)oc2cc1OC(=O)C(C)(C)C` stands “inactive”.
For the compound `Cc1ccc(Nc2nnc(SCC3CCCCO3)s2)cc1` (centres undefined), the maximum enhancement result was “inactive”.
Same read-out and setting: then `Cc1ccc(N2C(=O)NC(=O)/C(=C\C=C\c3ccco3)C2=O)cc1C`, with “inactive”.
As for `O=C1CC(c2cccc(Cl)c2)CC(O)=C1C=NC1CCCC1` (centres undefined), the EC50 entry was “inactive”.
Consider `Cc1ccc(/C=C2/NC(=O)N(Cc3ccc(Br)cc3)C2=O)o1`, for which the maximum enhancement result was “inactive”.
Still for that read-out and setting: under `CCN(CC)Cc1cc(C(=O)O)c(C)o1` stands “inactive”.
`O=C(COc1ccccc1)Nc1ncccn1`: the maximum enhancement result is “inactive”.
The same measure, in the same setting: then `N=C1C(c2nc3ccccc3[nH]2)=C(O)CN1c1ccccc1`, with “inactive”; and `Cn1c(=NC(=O)c2ccc3c(c2)OCCO3)sc2cc(S(C)(=O)=O)ccc21`, with “inactive”.
The same measure, in the same setting: then `Cc1cc(C)cc(OCC(=O)NNC(=O)CCN2C(=O)c3ccccc3C2=O)c1`, with “inactive”; and `Cc1[nH]c2ccc(Cl)cc2c(=O)c1CN1CCCC1`, with “inactive”.
As to `C/C(=N\NC(N)=S)c1cccnc1`, the maximum enhancement result was “inactive”.
The same measure, in the same setting: then `COC(Cn1cc(C)c(=O)[nH]c1=O)OC`, with “inactive”.
On to `N#Cc1nc(Cc2ccccc2)oc1NCCN1CCOCC1`, for which the maximum enhancement entry was “inactive”.
Same read-out and setting: under `O=S1(=O)C=C(Sc2nc3ccccc3s2)c2ccccc21` stands “inactive”.
